The experiment has as its target BTK (Homo sapiens (Human), UniProt Q06187). The experiment is described as follows: Btk kinase assay (HTRF). It counts as biochemical. As to the method: Btk Kinase Assay and Other Kinases Assay Btk kinase activity was determined using a homogenous time resolved fluorescence (HTRF) methodology. Measurements were performed in a reaction volume of 15 μL using 384-well assay plates. Kinase enzyme, inhibitor, ATP and 1 μM peptide substrate were incubated in a reaction buffer compose of Hepes 50 mM (pH7.0), NaN3 0.02%, BSA 0.01%, Orthocanadate 0.1 mM. […] For each compound, enzyme activity as measured at various concentrations of compound, Negative control reactions were performed in the absence of inhibitor in two replicates and eight no enzyme controls were used to determine baseline fluorescence levels.
A general note: In TR-FRET formats the signal depends on donor and acceptor labels being close together.

The mark [1] stands for this setting: [ATP]=80 μM, BTK=3.4 nM, read-out: BTK Inhibition.

Read-outs that look alike come from different tables or passages of the source.

BTK, sequence (Q06187 whole entry, species assumed): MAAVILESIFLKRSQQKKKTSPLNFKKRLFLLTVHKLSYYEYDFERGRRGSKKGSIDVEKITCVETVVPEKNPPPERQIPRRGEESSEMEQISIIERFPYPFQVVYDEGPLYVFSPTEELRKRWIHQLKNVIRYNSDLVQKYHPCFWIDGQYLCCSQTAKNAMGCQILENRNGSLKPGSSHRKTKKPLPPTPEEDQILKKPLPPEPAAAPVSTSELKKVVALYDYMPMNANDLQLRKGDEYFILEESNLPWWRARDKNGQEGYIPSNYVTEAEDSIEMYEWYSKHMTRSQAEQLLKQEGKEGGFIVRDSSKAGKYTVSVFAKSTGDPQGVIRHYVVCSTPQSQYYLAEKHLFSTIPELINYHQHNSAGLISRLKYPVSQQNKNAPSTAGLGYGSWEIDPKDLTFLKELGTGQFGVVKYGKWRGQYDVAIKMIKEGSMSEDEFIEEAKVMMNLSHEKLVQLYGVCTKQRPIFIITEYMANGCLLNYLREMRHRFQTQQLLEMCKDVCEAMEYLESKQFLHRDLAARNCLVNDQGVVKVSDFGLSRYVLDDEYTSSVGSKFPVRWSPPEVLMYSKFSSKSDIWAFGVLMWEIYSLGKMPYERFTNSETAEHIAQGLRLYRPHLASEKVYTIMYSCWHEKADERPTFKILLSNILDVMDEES

As for `C=CC(=O)N1CCC[C@@H](n2nc(-c3ccc(OCc4ccccc4F)cc3)c3cnccc32)C1` [Compound 101, (R)-1-(3-(3-(4-((2-fluorobenzyl)oxy)phenyl)-1H-pyrazolo[4,3-c]pyridin-1-yl)piperidin-1-yl)prop-2-en-1-one], the IC50 under setting [1] was in the range of 10 to 100 nM. `COc1cccc(Oc2ccc(-c3nn(CC4CCCN4C(=O)/C(C#N)=C/C(C)(C)C)c4c(OC)cncc34)cc2)c1F` (stereo not drawn) [Compound 92, (E)-2-(2-((3-(4-(2-fluoro-3-methoxyphenoxy)phenyl)-7-methoxy-1H-pyrazolo[4,3-c]pyridin-1-yl)methyl)pyrrolidine-1-carbonyl)-4,4-dimethylpent-2-enenitrile]: the IC50 under setting [1] fell in the range of 10 to 100 nM. On the same count and under the same terms, with `C=CC(=O)N1CC[C@H](n2nc(-c3ccc(Oc4cccc(Cl)c4Cl)cc3)c3cnccc32)C1` [Compound 42, (S)-1-(3-(3-(4-(2,3-dichlorophenoxy)phenyl)-1H-pyrazolo[4,3-c]pyridin-1-yl)pyrrolidin-1-yl)prop-2-en-1-one] the figure was less than 10 nM; with `C=CC(=O)N1CC[C@@H](n2nc(-c3ccc(Oc4cccc(OC)c4F)cc3)c3cncc(C(F)F)c32)C1` [Compound 67, (R)-1-(3-(7-(difluoromethyl)-3-(4-(2-fluoro-3-melhoxyphenoxy)phenyl)-1H-pyrazolo[4,3-c]pyridin-1-yl)pyrrolidin-1-yl)prop-2-en-1-one], less than 10 nM; with `C=CC(=O)N1CC[C@H](n2nc(-c3ccc(Oc4cccc(Cl)c4)cc3)c3cnccc32)C1` [Compound 36, (S)-1-(3-(3-(4-(3-chlorophenoxy)phenyl)-1H-pyrazolo[4,3-c]pyridin-1-yl)pyrrolidin-1-yl)prop-2-en-1-one], 10 to 100 nM. For `C=CC(=O)N1CCCC(Cn2nc(-c3ccc(Oc4ccccc4)cc3)c3cnccc32)C1` (stereo not drawn) [Compound 53, 1-(3-((3-(4-phenoxyphenyl)-1H-pyrazolo[4,3-c]pyridin-1-yl)methyl)piperidin-1-yl)prop-2-en-1-one], under setting [1], the IC50 was in the range of 10 to 100 nM.

As to `C=CC(=O)N1CCC[C@H](n2nc(-c3ccc(Oc4cccc(F)c4Cl)cc3)c3cnccc32)C1` [Compound 40, (S)-1-(3-(3-(4-(2-chloro-3-fluorophenoxy)phenyl)-1H-pyrazolo[4,3-c]pyridin-1-yl)piperidin-1-yl)prop-2-en-1-one], the IC50 under setting [1] was in the range of 10 to 100 nM. `C=CC(=O)N1CCC[C@@H](n2nc(-c3ccc(Oc4ccccc4)c(F)c3)c3cnccc32)C1` [Compound 51, (R)-1-(3-(3-(3-fluoro-4-phenoxyphenyl)-1H-pyrazolo[4,3-c]pyridin-1-yl)piperidin-1-yl)prop-2-en-1-one]: the IC50 under setting [1] was in the range of 10 to 100 nM. The same measure, in the same setting: with `C=CC(=O)N1CCC[C@@H](n2nc(-c3ccc(Oc4cccc(OC(C)C)c4)cc3)c3cnccc32)C1` [Compound 23, (R)-1-(3-(3-(4-(3-isopropoxyphenoxy)phenyl)-1H-pyrazolo[4,3-c]pyridin-1-yl)piperidin-1-yl)prop-2-en-1-one] the figure was 10 to 100 nM; with `C=CC(=O)N1CCC[C@@H](n2nc(-c3ccc(Oc4cccc(OC)c4C)cc3)c3cnccc32)C1` [Compound 57, (R)-1-(3-(3-(4-(3-methoxy-2-methylphenoxy)phenyl)-1H-pyrazolo[4,3-c]pyridin-1-yl)piperidin-1-yl)prop-2-en-1-one], 10 to 100 nM.

For the compound `C=CC(=O)N1CCC[C@@H](n2nc(-c3ccc(Oc4cccc(Cl)c4C)cc3)c3cnccc32)C1` [Compound 56, (R)-1-(3-(3-(4-(3-chloro-2-methylphenoxy)phenyl)-1H-pyrazolo[4,3-c]pyridin-1-yl)piperidin-1-yl)prop-2-en-1-one], the IC50 under setting [1] was 10 to 100 nM. The same measure, in the same setting: with `CC#CC(=O)N1CCC[C@@H](n2nc(-c3ccc(Oc4cccc(OC)c4F)cc3)c3cncc(OCCN(C)C)c32)C1` [Compound 94, (R)-1-(3-(7-(2-(dimethylamino)ethoxy)-3-(4-(2-fluoro-3-methoxyphenoxy)phenyl)-1H-pyrazolo[4,3-c]pyridin-1-yl)piperidin-1-yl)but-2-yn-1-one] the figure was 10 to 100 nM; with `COc1cccc(Oc2ccc(-c3nn([C@@H]4CCCN(C(=O)C(N)=O)C4)c4c(OC)cncc34)cc2)c1F` [Compound 120, (R)-2-(3-(3-(4-(2-fluoro-3-methoxyphenoxy)phenyl)-7-methoxy-1H-pyrazolo[4,3-c]pyridin-1-yl)piperidin-1-yl)-2-oxoacetamide], 10 to 100 nM; with `C=CC(=O)N1CCC(n2nc(-c3ccc(NC(=O)c4cccc(C(F)(F)F)c4)cc3)c3cnccc32)C1` (stereo not drawn) [Compound 116, N-{4-[1-(1-Acryloyl-pyrrolidin-3-yl)-1H-pyrazolo[4,3-c]pyridin-3-yl]-phenyl}-3-trifluoromethyl-benzamide], 10 to 100 nM. In the case of `C=CC(=O)N1CCC[C@@H](n2nc(-c3ccc(Oc4cccc(OC)c4F)cc3)c3cncc(F)c32)C1` [Compound 70, (R)-1-(3-(7-fluoro-3-(4-(2-fluoro-3-methoxyphenoxy)phenyl)-1H-pyrazolo[4,3-c]pyridin-1-yl)piperidin-1-yl)prop-2-en-1-one], the IC50 under setting [1] was less than 10 nM. Regarding `COc1cccc(Oc2ccc(-c3nn([C@@H]4CCCC(C(=O)O)C4)c4c(OC)cncc34)cc2)c1F` (stereo partly drawn) [Compound 121, (3R)-3-(3-(4-(2-fluoro-3-methoxyphenoxy)phenyl)-7-methoxy-1H-pyrazolo[4,3-c]pyridin-1-yl)cyclohexanecarboxylic acid], the IC50 lay within 10 to 100 nM. As for `C=CC(=O)N1CCC[C@@H](n2nc(-c3ccc(Oc4cccc(F)c4C)cc3)c3cnccc32)C1` [Compound 16, (R)-1-(3-(3-(4-(3-fluoro-2-methylphenoxy)phenyl)-1H-pyrazolo[4,3-c]pyridin-1-yl)piperidin-1-yl)prop-2-en-1-one], under setting [1], the IC50 was 10 to 100 nM.

`C=CC(=O)N1CC[C@@H](n2nc3ccncc3c2-c2ccc(Oc3cccc(F)c3Cl)cc2)C1` [Compound 38, (R)-1-(3-(3-(4-(2-chloro-3-fluorophenoxy)phenyl)-2H-pyrazolo[4,3-c]pyridin-2-yl)pyrrolidin-1-yl)prop-2-en-1-one]: the IC50 under setting [1] fell in the range of 10 to 100 nM.

On to `C=CC(=O)N1CCC[C@@H](n2nc(-c3ccc(Oc4cccc(OC)c4)cc3)c3cnccc32)C1` [Compound 65, (R)-1-(3-(3-(4-(3-methoxyphenoxy)phenyl)-1H-pyrazolo[4,3-c]pyridin-1-yl)piperidin-1-yl)prop-2-en-1-one], for which the IC50 under setting [1] lay within 10 to 100 nM. For the compound `CC#CC(=O)N1CCC[C@@H](n2nc(-c3ccc(C(=O)Nc4ccccn4)cc3)c3cnccc32)C1` [Compound 105, (R)-4-(1-(1-(but-2-ynoyl)piperidin-3-yl)-1H-pyrazolo [4,3-c]pyridin-3-yl)-N-(pyridin-2-yl)benzamide], the IC50 under setting [1] lay in the range of 100 to 1000 nM. On to `C=CC(=O)N1CC[C@@H](n2nc(-c3ccc(Oc4cccc(C)c4C)cc3)c3cnccc32)C1` [Compound 12, (R)-1-(3-(3-(4-(2,3-dimethylphenoxy)phenyl)-1H-pyrazolo[4,3-c]pyridin-1-yl)pyrrolidin-1-yl)prop-2-en-1-one], for which the IC50 under setting [1] was in the range of 10 to 100 nM.

In the case of `C=CC(=O)N1CC2(CC(n3nc(-c4ccc(Oc5cccc(OC)c5Cl)cc4)c4cnccc43)C2)C1` [Compound 30, 1-(6-(3-(4-(2-chloro-3-methoxyphenoxy)phenyl)-1H-pyrazolo[4,3-c]pyridin-1-yl)-2-azaspiro[3.3]heptan-2-yl)prop-2-en-1-one], the IC50 under setting [1] was 100 to 1000 nM. With `C=CC(=O)N1CC[C@@H](n2nc(-c3ccc(Oc4cccc(OC)c4F)cc3)c3cncc(Cl)c32)C1` [Compound 27, (R)-1-(3-(7-chloro-3-(4-(2-fluoro-3-methoxyphenoxy)phenyl)-1H-pyrazolo[4,3-c]pyridin-1-yl)pyrrolidin-1-yl)prop-2-en-1-one], the IC50 under setting [1] was in the range of 10 to 100 nM. On the same count and under the same terms, with `C=CC(=O)N1CCC[C@@H](n2nc(-c3ccc(Oc4cccc(F)c4OC)cc3)c3cnccc32)C1` [Compound 50, (R)-1-(3-(3-(4-(3-fluoro-2-methoxyphenoxy)phenyl)-1H-pyrazolo[4,3-c]pyridin-1-yl)piperidin-1-yl)prop-2-en-1-one] the figure was 10 to 100 nM; with `C=CC(=O)N1CC[C@@H](n2nc(-c3ccc(Oc4cccc(OC)c4Cl)cc3)c3cnccc32)C1` [Compound 13, (R)-1-(3-(3-(4-(2-chloro-3-methoxyphenoxy)phenyl)-1H-pyrazolo[4,3-c]pyridin-1-yl)pyrrolidin-1-yl)prop-2-en-1-one], less than 10 nM. Consider `C=CC(=O)N1CC[C@@H](n2nc(-c3ccc(Oc4cccc(OC)c4F)cc3)c3cncc(C)c32)C1` [Compound 5, (R)-1-(3-(3-(4-(2-fluoro-3-methoxyphenoxy)phenyl)-7-methyl-1H-pyrazolo [4,3-c]pyridin-1-yl)pyrrolidin-1-yl) prop-2-en-1-one], for which, under setting [1], the IC50 was less than 10 nM. Same read-out and setting: with `CC#CC(=O)N1CCC[C@@H](n2nc(-c3ccc(Oc4cccc(OC)c4Cl)cc3)c3cnccc32)C1` [Compound 25, (R)-1-(3-(3-(4-(2-chloro-3-methoxyphenoxy)phenyl)-1H-pyrazolo[4,3-c]pyridin-1-yl)piperidin-1-yl)but-2-yn-1-one] the figure was 100 to 1000 nM; with `C=CC(=O)N1CC[C@@H](n2nc(-c3ccc(Oc4ccccc4)cc3)c3cncc(F)c32)C1` [Compound 66], less than 10 nM. The same measure, in the same setting: with `C=CC(=O)N1CC[C@@H](n2nc(-c3ccc(Oc4cccc(F)c4OC)cc3)c3cnccc32)C1` [Compound 49, (R)-1-(3-(3-(4-(3-fluoro-2-methoxyphenoxy)phenyl)-1H-pyrazolo[4,3-c]pyridin-1-yl)pyrrolidin-1-yl)prop-2-en-1-one] the figure was 10 to 100 nM; with `C=CC(=O)N1CCC[C@@H](n2nc(-c3ccc(Oc4cccc(OC)c4F)cc3)c3cncc(OCCCC)c32)C1` [Compound 76, (R)-1-(3-(7-butoxy-3-(4-(2-fluoro-3-methoxyphenoxy)phenyl)-1H-pyrazolo[4,3-c]pyridin-1-yl)piperidin-1-yl)prop-2-en-1-one], less than 10 nM.

The record behind these values is patent US10662187B2, “Bruton's tyrosine kinase inhibitors” (Zibo Biopolar Changsheng Pharmaceutical Co. Ltd., priority 2016, dated 2020).
